The values that follow are results of earlier work, collected in PMC4642890 (Bioorganic & medicinal chemistry letters, 2015).

For this data set, the system named is neuropathic pain. As to conditions: rodent model.

Regarding “Tyr^1-DAla^2-Gly^3-Phe^4-Met^5-Pro^6-Leu^7-Trp^8-O-[3’,5’-Bzl(CF3)2] [TY005]”, the “effect on neuropathic pain” value is “reverse neuropathic pain”, the opioid-induced tolerance entry is “no sign of opioid-induce tolerance” and the reward liability entry was “no development of reward liability”.

On to “Tyr^1-DAla^2-Gly^3-Phe^4-Met^5-Pro^6-Leu^7-Trp^8-NH-[3’,5’-Bzl(CF3)2] [TY027]”, for which the “effect on neuropathic pain” value is “reverse neuropathic pain”, the opioid-induced tolerance result is reported as “no sign of opioid-induce tolerance” and the reward liability result is reported as “no development of reward liability”.
